Measurements published in patent EP1227090A1, “AMINE DERIVATIVES” (Tadeka Chemical Industries, Ltd., priority 1999, dated 2001).

Columns and labels:
Conditions in all cases: 125I-somatostatin-14 binding inhibition, CHO cell membrane fraction, 25°C for 60 minutes, Hill plots
[1] = target: T1, human somatostatin receptor protein subtype 2 (SSTR2) (Homo sapiens, UniProt P30874); assay: Measurement of the binding inhibition rate of 125I-Somatostatin (SSTR2)
T1 construct: expressed in transfected cells; host or cells: CHO (dhfr-) cells, strain SSTR2-HS5-9, plasmid pAC01 (pAKKO-111 vector); membrane fraction
T1 sequence (P30874 whole entry): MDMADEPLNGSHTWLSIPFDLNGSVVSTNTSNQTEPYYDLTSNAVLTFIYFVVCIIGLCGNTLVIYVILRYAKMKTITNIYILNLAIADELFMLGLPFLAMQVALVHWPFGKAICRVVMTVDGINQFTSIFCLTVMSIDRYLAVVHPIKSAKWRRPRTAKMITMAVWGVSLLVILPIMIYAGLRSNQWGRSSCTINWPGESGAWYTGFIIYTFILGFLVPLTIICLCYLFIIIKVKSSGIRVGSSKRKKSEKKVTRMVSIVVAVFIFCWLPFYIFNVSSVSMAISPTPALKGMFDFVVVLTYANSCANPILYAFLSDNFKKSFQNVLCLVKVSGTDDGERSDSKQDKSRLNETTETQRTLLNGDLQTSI
Procedure: 1 x 10^6 CHO (dhfr^-) cells were cultured for 24 hours in HAM F12 medium containing 10% bovine fetal serum on a laboratory dish of 8 cm in diameter. To the cells was transfected 10 µg of the human SSTR2 cDNA expression plasmid, pA-C01, obtained under the above (5) by the calcium phosphate method (Cell Phect Transfection Kit: Pharmacia). The medium was switched to DMEM medium containing 10% dialyzed bovine fetal serum 24 hours after the transfection to select the colony-forming cells (i.e. DHFR^+ cells) in this medium. Further, the selected cells were cloned from a single cell by the limiting dilution method and a cell strain which highly expresses human SSTR2, SSTR2-HS5-9, was selected.
(§1) Measurement of the binding inhibition rate of ^125I-Somatostatin
(§2) The receptor binding inhibition rate (%) of the subject compound was calculated using each of the membrane fractions prepared in Experimental Examples 1 and 2.
(§3) The membrane fraction was diluted with a buffer solution for assay to adjust the concentration to 3 µg/ml. The diluate was placed in tubes each in quantity of 173 µl. To this were simultaneously added 2 µl of a solution of a subject compound in DMSO and 25 µl of a 200 pM radioisotope-labeled somatostatin-14 (^125I-somatostatin-14: Amersham). For measurement of the maximum binding, a reaction mixture added with 2 µl of DMSO and 25 µl of a 200 pM ^125I-somatostatin was prepared. For measurement of non-specific binding, a reaction mixture added with 2 µl of a 100 µM somatostatin solution in DMSO and 25 µl of a 200 pM ^125I-somatostatin solution was prepared at the same time. The mixtures were allowed to react at 25°C for 60 minutes. Then, the reaction mixture was filtered by aspiration using a Whatman glass filter (GF-B) treated with polyethylenimine. After filtration, the radioactivity of ^125I-somatostatin-14 remaining on the filter paper was measured by a γ-counter. The binding inhibition rate (%) of each subject compound was calculated by the following formula: (TB-SB)/(TB-NSB) x 100 [formula] SB: radioactivity when a compound was added TB: maximum binding radioactivity NSB: non-specific binding radioactivity
(§4) The binding inhibition rates were measured by changing the concentrations of the subject compound, and the 50% inhibiting concentration of the subject compound (IC50 value) was calculated by the Hill plots.

[2] = target: T2, human somatostatin receptor protein subtype 3 (SSTR3) (Homo sapiens, UniProt P32745); assay: Measurement of the binding inhibition rate of 125I-Somatostatin (SSTR3)
T2 construct: expressed in transfected cells; host or cells: CHO (dhfr-) cells, strain SSTR3-15-19, plasmid pA1-11-SSTR3 (pAKKO-111 vector); membrane fraction
T2 sequence (P32745 whole entry): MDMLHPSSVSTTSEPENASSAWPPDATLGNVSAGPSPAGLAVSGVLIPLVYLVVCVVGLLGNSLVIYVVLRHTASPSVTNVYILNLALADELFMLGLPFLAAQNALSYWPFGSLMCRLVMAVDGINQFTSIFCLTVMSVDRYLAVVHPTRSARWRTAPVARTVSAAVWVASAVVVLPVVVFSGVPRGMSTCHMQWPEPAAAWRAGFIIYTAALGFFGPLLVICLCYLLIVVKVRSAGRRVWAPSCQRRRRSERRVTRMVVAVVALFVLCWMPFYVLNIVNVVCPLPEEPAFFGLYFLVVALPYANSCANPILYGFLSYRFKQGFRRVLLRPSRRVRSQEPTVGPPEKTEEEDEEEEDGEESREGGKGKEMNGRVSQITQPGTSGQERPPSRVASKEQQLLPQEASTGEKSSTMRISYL
Procedure: 1 x 10^6 CHO (dhfr^-) cells were cultured for 24 hours in HAM F12 medium containing 10% bovine fetal serum on a laboratory dish of 8 cm in diameter. The cells were transfected by 10 µg of the human SSTR3 DNA expression plasmid, pA-1-11-SSTR3, obtained under the above (5) using the calcium phosphate method. The medium was switched to DMEM medium containing 10% dialyzed bovine fetal serum 24 hours after the transfection to select the colony-forming cells (i.e. DHFR^+ cells) in this medium. Further, the selected cells were cloned from a single cell by the limiting dilution method and the somatostatin receptor protein expression activity of these cells was measured by the binding assay mentioned under the above (3). Thus, a highly somatostatin-binding cell strain, SSTR3-15-19, was selected.
as §1, §2, §3, §4

[3] = target: T3, human somatostatin receptor protein subtype 5 (SSTR5) (Homo sapiens, UniProt P35346); assay: Measurement of the binding inhibition rate of 125I-Somatostatin (SSTR5)
T3 construct: expressed in transfected cells; host or cells: CHO (dhfr-) cells, strain SSTR5-32-4, plasmid pA1-11-SSTR5 (pAKKO-111 vector); membrane fraction
T3 sequence (P35346 whole entry): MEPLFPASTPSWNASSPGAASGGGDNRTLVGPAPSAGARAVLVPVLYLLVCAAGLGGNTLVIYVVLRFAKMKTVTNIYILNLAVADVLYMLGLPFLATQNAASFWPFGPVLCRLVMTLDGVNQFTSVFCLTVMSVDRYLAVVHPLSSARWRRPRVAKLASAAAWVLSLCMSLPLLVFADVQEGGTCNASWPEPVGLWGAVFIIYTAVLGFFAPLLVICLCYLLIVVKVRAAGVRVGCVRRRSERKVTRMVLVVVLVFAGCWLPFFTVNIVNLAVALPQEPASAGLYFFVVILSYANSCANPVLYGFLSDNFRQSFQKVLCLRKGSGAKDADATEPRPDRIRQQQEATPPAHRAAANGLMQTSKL
Procedure: 1 x 10^6 CHO (dhfr^-) cells were cultured for 24 hours in HAM F12 medium containing 10% bovine fetal serum on a laboratory dish of 8 cm in diameter. To the cells was transfected 10 µg of the human SSTR5 cDNA expression plasmid, pA-1-11-SSTR5, obtained under the above (11) by the calcium phosphate method. The medium was switched to DMEM medium containing 10% dialyzed bovine fetal serum 24 hours after the transfection to select the colony-forming cells (i.e. DHFR^+ cells) in this medium. Further, the selected cells were cloned from a single cell by the limiting dilution method and the somatostatin receptor protein expression activity of these cells was measured by binding assay mentioned under the above (3). Thus, a highly somatostatin-biding cell strain, SSTR5-32-4, was selected.
as §1, §2, §3, §4

CN(C)CC1Cc2cc(Cl)ccc2N(C(=O)[C@@H](Cc2c[nH]c3ccccc23)NC(=O)C2CCN(C(=O)c3cc4ccccc4[nH]3)CC2)C1 (stereo partly drawn) [Example 14, N-[(1R)-2-[6-chloro-3-(R,S)-[(dimethylamino)methyl]-1,2,3,4-tetrahydro-1-quinolinyl]-1-(1-indol-3-ylmethyl)-2-oxoethyl]-1-(1-indol-2-ylcarbonyl)-4-piperidinecarboxamide]
IC50 [1]: 0.6 nM | IC50 [2]: 70 nM | IC50 [3]: 300 nM

CN(C)C[C@H]1Cc2cc(Cl)ccc2N(C(=O)[C@@H](Cc2c[nH]c3ccccc23)NC(=O)CCC2CCN(C(=O)c3ccccc3)CC2)C1 [Example 31, 3-(1-benzoyl-4-piperidinyl)-N-[(1R)-2-[(3R)-6-chloro-3-[(dimethylamino)methyl]-1,2,3,4-tetrahydro-1-quinolinyl]-1-(1-indol-3-ylmethyl)-2-oxoethyl]propanamide]
IC50 [1]: 2 nM | IC50 [2]: 60 nM | IC50 [3]: 300 nM

CN(C)C[C@H]1Cc2cc(Cl)ccc2N(C(=O)[C@@H](Cc2c[nH]c3ccccc23)NC(=O)C2CCN(C(=O)c3cc4ccccc4n3C)CC2)C1 [Example 51, N-[(1R)-2-[(3R)-6-chloro-3-[(dimethylamino)-methyl]-1,2,3,4-tetrahydro-1-quinolinyl]-1-(1-indol-3-ylmethyl)-2-oxoethyl]-1-(1-methylindol-2-ylcarbonyl)-4-piperidinecarboxamide]
IC50 [1]: 0.3 nM | IC50 [2]: 80 nM | IC50 [3]: 400 nM

CN(C)C[C@H]1Cc2cc(Cl)ccc2N(C(=O)[C@@H](Cc2c[nH]c3ccccc23)NC(=O)N2CCC(C(=O)c3ccc(Cl)cc3)CC2)C1 [Example 130, 4-(4-chlorobenzoyl)-N-[(1R)-2-[(3R)-6-chloro-3-[(dimethylamino)methyl]-1,2,3,4-tetrahydro-1-quinolinyl]-1-(1-indol-3-ylmethyl)-2-oxoethyl]-1-piperidinecarboxamide]
IC50 [1]: 2 nM | IC50 [2]: 40 nM | IC50 [3]: 400 nM

CN(C)C[C@H]1Cc2cc(Cl)ccc2N(C(=O)[C@@H](Cc2c[nH]c3ccccc23)NC(=O)N2CCC(Oc3ccccc3)CC2)C1 [Example 145-2, N-[(1R)-2-[(3R)-6-chloro-3-[(dimethylamino)methyl]-1,2,3,4-tetrahydro-1-quinolinyl]-1-(1H-indol-3-ylmethyl)-2-oxoethyl]-4-phenoxyl-1-piperidinecarboxamide]
IC50 [1]: 1 nM | IC50 [2]: 10 nM | IC50 [3]: 200 nM
